Experimental findings from US20260374739A1, “SMALL MOLECULAR WEIGHT CHEMICAL COMPOUND TO ANTAGONIZE EPH-EPHRIN TETRAMERIZATION AND INHIBIT BIDIRECTIONAL SIGNALING” (THE BOARD OF REGENTS OF THE UNIVERSITY OF TEXAS SYSTEM, priority 2022, published 2026) are described below.

The target of assay [1] is T1, EphrinB2-EphB2 (Homo sapiens, UniProt P29323).
T1 construct: soluble human EphB1-His, EphB2-His, and EphB4-His ectodomains; commercially available human EphrinB1-Fc (EB1), EphrinB2-Fc (EB2), and EphrinB3-Fc (EB3) ectodomain proteins; purchased
T1 sequence (P29323 19-543 limits assumed): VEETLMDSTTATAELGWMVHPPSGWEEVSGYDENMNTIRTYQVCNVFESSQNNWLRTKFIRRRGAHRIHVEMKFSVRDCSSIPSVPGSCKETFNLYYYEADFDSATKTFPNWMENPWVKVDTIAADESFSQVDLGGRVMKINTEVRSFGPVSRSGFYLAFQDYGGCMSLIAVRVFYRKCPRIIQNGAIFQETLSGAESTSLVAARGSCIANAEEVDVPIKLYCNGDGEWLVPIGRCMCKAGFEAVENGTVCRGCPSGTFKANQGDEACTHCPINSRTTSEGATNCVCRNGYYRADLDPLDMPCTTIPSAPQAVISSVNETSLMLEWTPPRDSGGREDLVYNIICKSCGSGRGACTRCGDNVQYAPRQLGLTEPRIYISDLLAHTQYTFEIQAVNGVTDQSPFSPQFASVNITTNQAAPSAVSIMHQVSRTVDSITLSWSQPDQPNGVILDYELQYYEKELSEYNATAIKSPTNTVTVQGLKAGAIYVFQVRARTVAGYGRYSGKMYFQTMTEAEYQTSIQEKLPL
In words: Octet tetramerization inhibition, immobilized human EphrinB2 binding to 50 nM soluble human EphB2. The following applies: for disruption of unsurmountable tetramer: 0.8-3.2 μM.

Assay [2] deals with T1, EphrinB2-EphB2. In words: Octet 80 sec association/500 sec dissociation, immobilized human EphrinB2-Fc binding to soluble human EphB2-His. The following applies: for inhibition at 3.2 µM: EphB2, 25 nM EphB2, 3.2 μM compound, A20-I as max control, 0* = less than 0, no inhibition; for EphB2 Inhibition Percent, Inhibition of Association-Dissociation: at 3.2 μM and 580 seconds; for inhibition of EphrinB2-EphB interactions: 3.2 μM, EphB1, EphB2 and EphB4. An outline of the steps: (§1)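 EphrinB2-Fc captured on AHC biosensors, then soluble His-tagged EphB ectodomain (25 nM for % inhibition runs) associated 80 s and dissociated 500 s in PBS, 0.05% Tween-20, 1% DMSO ± compound. Compounds tested at 0.1–3.2 μM with a 10 μM max standard; IC50 from AUC of full traces or at 75 s and 135 s.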

In assay [3] the target is T2, EphrinB2-EphB4 (Homo sapiens, UniProt P54760).
T2 construct: soluble human EphB1-His, EphB2-His, and EphB4-His ectodomains; commercially available human EphrinB1-Fc (EB1), EphrinB2-Fc (EB2), and EphrinB3-Fc (EB3) ectodomain proteins; purchased
T2 sequence (P54760 16-539 limits assumed): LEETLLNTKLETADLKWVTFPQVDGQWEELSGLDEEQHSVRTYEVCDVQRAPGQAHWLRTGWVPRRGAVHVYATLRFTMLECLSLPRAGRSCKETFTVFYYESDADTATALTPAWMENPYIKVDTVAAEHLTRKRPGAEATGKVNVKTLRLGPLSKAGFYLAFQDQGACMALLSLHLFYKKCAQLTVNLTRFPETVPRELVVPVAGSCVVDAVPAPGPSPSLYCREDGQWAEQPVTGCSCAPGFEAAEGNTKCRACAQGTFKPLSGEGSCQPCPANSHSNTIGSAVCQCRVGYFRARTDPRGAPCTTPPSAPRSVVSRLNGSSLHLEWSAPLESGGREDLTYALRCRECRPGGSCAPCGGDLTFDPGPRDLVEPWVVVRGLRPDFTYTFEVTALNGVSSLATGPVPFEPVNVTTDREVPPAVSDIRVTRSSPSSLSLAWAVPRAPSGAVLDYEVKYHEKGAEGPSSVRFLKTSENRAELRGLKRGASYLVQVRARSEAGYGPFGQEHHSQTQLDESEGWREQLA
Put plainly: Octet 80 sec association/500 sec dissociation, immobilized human EphrinB2-Fc binding to soluble human EphB4-His. As to conditions: for inhibition at 3.2 µM: EphB4, 25 nM EphB4, 3.2 μM compound, A20-I as max control, 0* = less than 0, no inhibition. The essentials: as §1
A general note: BLI is a label-free optical method that tracks binding on a fibre tip over time.

The mark [4] stands for this setting: Absolute AUC/IC50, Table A, EphrinB2-EphB2.
Setting [5] is: Absolute Association IC50 (300 sec), Table A, EphrinB2-EphB2.
Setting [6] is: Absolute Dissociation IC50 (450 sec), Table A, EphrinB2-EphB2.
Where [7] appears, read: Relative Association IC50 (300 sec), Table A, EphrinB2-EphB2.
The mark [8] stands for this setting: Relative Dissociation IC50 (450 sec), Table A, EphrinB2-EphB2.
Where [9] appears, read: read-out: % Inhibition: Association + Dissociation (160 sec).
Setting [10] is: read-out: % Inhibition: Association ONLY (80 sec).
Setting [11] is: Relative AUC/IC50, Table A, EphrinB2-EphB2, compound 7: association only.
Setting [12] is: tetramerization inhibitor IC50 (relative), association step, surmountable tetramer.
The mark [13] stands for this setting: immobilized human EphrinB2, 25 nM soluble human EphB2.

Each structure is given as a SMILES string. pIC50: −log10 of the molar value. Values joined by “and” are separate entries in the source; they are usually repeats but may differ in a detail not shown here. Equal entries are not always repeated. Where two headings read alike, the source gives them in different places. Marks after values point to notes of the source that are not given here. A value given as a limit tells only on which side of the number the result lay.

The pIC50 is −log10 of the IC50, conventionally taken in molar units. High values mean a low IC50, low ones a high IC50. A word on the inhibition: it is the relative decrease from the control value, in per cent. As for `Oc1c(Br)cc(CN2CCN(Cc3ccc(Br)cc3)CC2)c2cccnc12` [Compound 44, 7-bromo-5-((4-(4-bromobenzyl)piperazin-1-yl)methyl)quinolin-8-ol], the “tetramerization inhibitor activity” value in assay [1] is on record as “appears promising”. The pIC50 in assay [1] (setting [4]) was less than 5.49; in assay [1] (setting [5]), less than 5.49; in assay [1] (setting [6]), 6.42; in assay [1] (setting [7]), 6.55; in assay [1] (setting [8]), 6.52. The inhibition at 3.2 µM in assay [2] (setting [9]) amounted to 77.1%; in assay [2] (setting [10]), 62.1%; in assay [3] (setting [9]) it was 28.3%; in assay [3] (setting [10]), 4.9%.

Turning to `Oc1ccc(CN2CCN(Cc3ccc(C(F)(F)F)cc3)CC2)c2cccnc12` [Compound 48, 5-((4-(4-(trifluoromethyl)benzyl)piperazin-1-yl)methyl)quinolin-8-ol], the negative logarithm of the IC50 (pIC50) in assay [1] (setting [4]), in assay [1] (setting [5]), in assay [1] (setting [6]), in assay [1] (setting [11]), in assay [1] (setting [7]) and in assay [1] (setting [8]) was less than 5.80 in each case. The inhibition at 3.2 µM in assay [2] (setting [9]) is 46.2%; in assay [2] (setting [10]) it was 21.3%; in assay [3] (setting [9]), 0%; in assay [3] (setting [10]), 0%.

On to `O=C(Cc1ccccc1)Nc1ccc(N2CCN(Cc3ccc(O)c4ncccc34)CC2)cc1` [Compound 51, N-(4-(4-((8-hydroxyquinolin-5-yl)methyl)piperazin-1-yl)phenyl)-2-phenylacetamide], for which, in assay [1], the “disruption of unsurmountable tetramer” value was “able to inhibit a small amount of the EphrinB2-EphB2 unsurmountable tetramer”. The pIC50 in assay [1] (setting [4]) is 5.82; in assay [1] (setting [5]), 5.84; in assay [1] (setting [6]), 5.89; in assay [1] (setting [11]) it was 5.99; in assay [1] (setting [7]) it was 6.01; in assay [1] (setting [8]), 6.03. Moreover, in assay [1] (setting [12]), the pIC50 was approximately 5.92. Besides, the inhibition at 3.2 µM was 78.8% in assay [2] (setting [9]), 64.8% in assay [2] (setting [10]), 37.2% in assay [3] (setting [9]) and 18.1% in assay [3] (setting [10]).

On to `Oc1ccc(CN2CCN(c3ccc(F)cc3F)CC2)c2cccnc12` [Compound 62, 5-((4-(2,4-difluorophenyl)piperazin-1-yl)methyl)quinolin-8-ol], for which the negative logarithm of the IC50 (pIC50) in assay [1] (setting [4]), in assay [1] (setting [5]), in assay [1] (setting [6]), in assay [1] (setting [11]), in assay [1] (setting [7]) and in assay [1] (setting [8]) was less than 5.80 in each case. Moreover, the “EphB2 Inhibition Percent, Inhibition of Association ONLY” value in assay [2] (at 3.2 μM and 80 seconds, immobilized human EphrinB2, 25 nM soluble human EphB2) is on record as 0*%. In addition, the “EphB2 Inhibition Percent, Inhibition of Association-Dissociation” value in assay [2] (setting [13]) was 0*%. The “EphB4 Inhibition Percent, Inhibition of Association ONLY” value in assay [3] (at 3.2 μM and 80 seconds, immobilized human EphrinB2, 25 nM soluble human EphB4) is 5.0%. For the same compound, the “EphB4 Inhibition Percent, Inhibition of Association-Dissociation” value in assay [3] (at 3.2 μM and 580 seconds, immobilized human EphrinB2, 25 nM soluble human EphB4) was 0*%.

As to `COc1ccc2[nH]cc(C(=O)N3CCOCC3)c2c1` [Compound 63, (5-methoxy-1H-indol-3-yl)(morpholino)methanone], the pIC50 in assay [1] (setting [4]), in assay [1] (setting [5]), in assay [1] (setting [6]), in assay [1] (setting [11]), in assay [1] (setting [7]) and in assay [1] (setting [8]) was less than 5.49 each time. For the same compound, the “inhibition of EphrinB2-EphB interactions” value in assay [2] is “showed no activity across the board”. The inhibition at 3.2 µM worked out at 1.3% in assay [2] (setting [9]), 4.3% in assay [2] (setting [10]), 0% in assay [3] (setting [9]) and 0% in assay [3] (setting [10]). The “EphB2 Inhibition Percent, Inhibition of Association-Dissociation” value in assay [2] (setting [13]) is recorded as 0*%.

Turning to `COc1ccc2[nH]cc(C(=O)N3CCN(c4ccccc4OC)CC3)c2c1` [Compound 64, (5-methoxy-1H-indol-3-yl)(4-(2-methoxyphenyl)piperazin-1-yl)methanone], the pIC50 in assay [1] (setting [4]), in assay [1] (setting [5]), in assay [1] (setting [6]), in assay [1] (setting [11]), in assay [1] (setting [7]) and in assay [1] (setting [8]) was less than 5.80 each time. The inhibition at 3.2 µM in assay [2] (setting [9]), in assay [2] (setting [10]), in assay [3] (setting [9]) and in assay [3] (setting [10]) was 0% each time.

Regarding `COc1ccccc1N1CCN(Cc2cc(Br)c(O)c3ncccc23)CC1` [Compound 70, 7-bromo-5-((4-(2-methoxyphenyl)piperazin-1-yl)methyl)quinolin-8-ol], the pIC50 is less than 5.80 in assay [1] (setting [4]); 5.92 in assay [1] (setting [5]); 6.44 in assay [1] (setting [6]); 6.77 in assay [1] (setting [11]); 6.74 in assay [1] (setting [7]); 6.72 in assay [1] (setting [8]). Besides, the pIC50 in assay [1] (setting [12]) was approximately 6.70. For the same compound, the inhibition at 3.2 µM in assay [2] (setting [9]) is 73%; in assay [2] (setting [10]), 53.4%; in assay [3] (setting [9]), 36.3%; in assay [3] (setting [10]), 15.1%.

Turning to `COc1ccccc1N1CCN(Cc2cc(I)c(O)c3ncccc23)CC1` [Compound 71, 7-iodo-5-((4-(2-methoxyphenyl)piperazin-1-yl)methyl)quinolin-8-ol], the “tetramerization inhibitor activity” value in assay [1] is “exhibit strong IC50 values”. For the same compound, the “disruption of unsurmountable tetramer” value in assay [1] (listed as 3511-1) is “fairly strong ability to disrupt some of the unsurmountable tetramer”; in assay [1] (listed as 3511-I), “able to inhibit a small amount of the EphrinB2-EphB2 unsurmountable tetramer”. For the same compound, the pIC50 was 6.38 and 6.28 in assay [1] (setting [4]); 6.17 in assay [1] (setting [5]); 6.21 and 6.19 in assay [1] (setting [6]); 6.42 and 6.39 in assay [1] (setting [11]); 6.33 and 6.47 in assay [1] (setting [7]); 6.32 and 6.29 in assay [1] (setting [8]). The “inhibition of EphrinB2-EphB interactions” value in assay [2] was “activity similar to A20-I max control”. Besides, the inhibition at 3.2 µM in assay [2] (setting [9]) is 73.2%; in assay [2] (setting [10]), 58.7%; in assay [3] (setting [9]), 35.6%; in assay [3] (setting [10]), 17.5%.
